Non-standard residues stand in square brackets, D forms with d. Residues, ends and D or L forms follow the SMILES beside them. ξ: configuration not given here. *: point of attachment. Doxorubicin(3'-N) = COc1cccc2c1C(=O)c1c(O)c3c(c(O)c1C2=O)C[C@@](O)(C(=O)CO)C[C@@H]3O[C@H]1C[C@H](N*)[C@H](O)[C@H](C)O1; Hexanoyl(6-maleimido) = O=C1C=CC(=O)N1CCCCCC(=O)*; ξL = CC(C)CC(N)C(=O)O
What was measured:
[1] = system: HT1080 cells; experiment: Efficacy in HT1080 tumor model; type: in vivo; settings: HT1080, nude mice, 18 umol/kg IV once weekly for 3 weeks
Source text: Test purpose: to investigate the anti-tumor efficacy of QHL-086, QHL-092, QHL-095, QHL-087, QHL-010, QHL-117 in mice model for tumor treatment.
Test drug: C3, QHL-086, QHL-092, QHL-095, QHL-087, QHL-010, QHL-117 injections and mitomycin injection, diluted to corresponding concentrations by physiological saline when testing.
(§1) 1. Animal: nude mice of 6-8 weeks old, all female.
1) HT1080 cells were purchased from American type culture collection (ATCC) and identified according the specification provided by ATCC.
(§2) 2) Production of tumor. […] Mice were randomly grouped after the tumor reached at least 100 mm^3. Then treatment began and the day on which the treatment began was day 1.
According to the clinical application of C3, QHL-086, QHL-092, QHL-095, QHL-087, QHL-010, QHL-117 were intravenously injected (IV). C3, QHL-086, QHL-092, QHL-095, QHL-087, QHL-010, QHL-117 were administered in a low and same dose of 18 umol/kg. The control group was administered by physiological saline. Drugs were administered once weekly for 3 weeks.

[2] = system: Human liver cancer HepG2 cells; experiment: Efficacy on human liver cancer HepG2 cells in nude mice; type: in vivo; settings: 54 umol/kg IV once weekly for four weeks
Source text: Test purpose: to investigate the anti-tumor efficacy of some compounds of the invention in mice model for tumor treatment.
Test drug: QHL-095, QHL-008, QHL-086, QHL-116, QHL-119, QHL-092, QHL-006, QHL-089, QHL-005, QHL-007, QHL-096, QHL-012, QHL-087, QHL-117, QHL-120, QHL-093, QHL-010, QHL-090, QHL-009, QHL-011 injections and control group injection, diluted to corresponding concentrations by physiological saline when testing.
as §1
1) Human liver cancer HepG2 cells were purchased from American type culture collection (ATCC) and identified according the specification provided by ATCC.
as §2
According to the clinical application of QHL-095, QHL-008, QHL-086, QHL-116, QHL-119, QHL-092, QHL-006, QHL-089, QHL-005, QHL-007, QHL-096, QHL-012, QHL-087, QHL-117, QHL-120, QHL-093, QHL-010, QHL-090, QHL-009, QHL-011, drugs were intravenously injected (IV). Compounds and control groups were administered in a dose of 54 umol/kg. The control group was administered by physiological saline. Drugs were administered once weekly for four weeks.

[3] = physchem
[4] = system: acidized human breast cancer (MDA-MB435) tumor tissue homogenates; experiment: Activation efficiency of the linker by tumor tissue homogenates (HPLC); type: biochemical; settings: Table 4-1; 37° C., MDA-MB435 tumor tissue homogenates pH6.0, compound 1 mg/ml
Protocol: When the C selected AAN, The activation of different S-C-A linker and control linker was evaluated in the activation assay, The S-C-A conjugate was used to dissolve and they were diluted for ten times to a concentration of 0.1 mM/ml. At 37° C., sample compounds were added into 100 μg acidized human breast cancer (MDA-MB435) tumor tissue homogenates (pH6.0) in a concentration of 1 mg/ml. The enzyme in tumor tissue homogenates could release and detected by HPLC, thereby comparing the activation efficiency of the linker by the tumor tissue.

[5] = Water solubility of freeze-dried compounds in water (observation and HPLC)
[6] = system: CT26 tumor cells; experiment: CT26 tumor immune model: inhibition of tumor; type: in vivo; settings: CT26 subcutaneous tumor, BALB/c mice, compounds 18 μmol/kg, mouse PD-1 antibody 5 mg/kg
Protocol: Test purpose: to investigate the anti-tumor efficacy of different compounds in CT26 cancer model for immune treatment.
1) CT26 tumor cells were purposed from ATCC. Cells were cultivated in DMEM culture solution containing 10% fetal bovine serum at 37° C. and 5% CO2. The cells were passaged for every three days and cells within the 15th passage were used.
(§3) 2) 5×10^5CT26 cancer cells were subcutaneously injected to the back of the nude mice. Mice were randomly grouped after the tumor reached at least 100 mm^3 Then treatment began and the day on which the treatment began was day 1.

[7] = system: tumor CD8+ T cells; experiment: CT26 tumor immune model: tumor CD8+ T cells (CD8 positive in CD45 positive cells, flow cytometry); type: in vivo, BALB/c mice; settings: ratio of CD8 positive cells in CD45 positive cells in tumor, compounds 18 μmol/kg, PD-1 antibody 5 mg/kg
Protocol: as §3
3) Analysis on tumor CD8+ T cells. The tumor tissue was homogenated and individual cells in the tumor were filtered, separated and washed by buffer twice, then cultivated with the leucocyte common antigen CD45-PE and CD8-FITC marked antibodies for 1 hour at ambient temperature. The cells were washed by phosphate buffer containing 1% fetal bovine serum twice and then analyzed for the ratio of the T lymphocyte antigen (CD8) positive cells in the leucocyte common antigen (CD45) positive cells by flow cytometry.

[8] = Tissue distribution of released doxorubicin in orthotopic transplantation CT26 tumor in liver; settings: tissues at 1-72 hr, FIG. 2, FIG. 3
Protocol: Production of tumor model: CT26 tumor cells were purposed from ATCC. Cells were cultivated in DMEM culture solution containing 10% fetal bovine serum at 37° C. and 5% CO2. The cells were passaged for every three days and cells within the 15th passage were used.
5×10^5CT26 cancer cells were subcutaneously injected to the back of the nude mice. Mice were randomly grouped after the tumor reached 800-1000 mm^3. Then extract the tumor tissue and cleave to 100 mm3 tumor tissue block and orthotopic transplant into BALB/c mice liver. After 14 days, when orthotopic transplantation tumor grow up, 36 mice with orthotopic transplantation tumor for a group are treated with drug. Then collect the different tissue at 1, 6, 12, 24, 36, 72 hr to detect the concentration of releasing doxorubicin in different tissue.

Row | Structure (SMILES) | Size of tumor (mm^3) Day 28 [1] | inhibitory rate on tumor Day 28 [1] | Size of tumor (mm^3) Day 28 [2] | inhibitory rate on tumor Day 28 [2] | solubility [3] | Activation (%) [4] | solubility [5] | inhibitory rate on tumor % Day 18 ([6]; Day 18 as printed) | Size of tumor (mm^3) Day 28 ([6]; Day 28) | CD8:CD45 (%) [7] | active doxorubicin tissue distribution, in words [8]
1 | COc1cccc2c1C(=O)c1c(O)c3c(c(O)c1C2=O)C[C@@](O)(C(=O)CO)C[C@@H]3O[C@H]1C[C@H](N)[C@H](O)[C@H](C)O1 [C1 DOX, Doxorubicin] | 754.4 ± 587.4 mm^3 | 56.8% | 1683.4 ± 1087.4 mm^3 | 41.9% | – | – | – | – | – | – | –
2 | COc1cccc2c1C(=O)c1c(O)c3c(c(O)c1C2=O)C[C@@](O)(C(=O)CO)C[C@@H]3O[C@H]1C[C@H](NC(=O)[C@H](CC(C)C)NC(=O)[C@H](CC(N)=O)NC(=O)[C@H](C)NC(=O)[C@H](C)NC(=O)[C@@H](NC(=O)CCCCCN2C(=O)C=CC2=O)C(C)C)[C@H](O)[C@H](C)O1 [QHL-123] ({Hexanoyl(6-maleimido)}-VAANL-{Doxorubicin(3'-N)}) | – | – | – | – | > 2000 µg/mL | – | – | – | – | – | –
3 | COc1cccc2c1C(=O)c1c(O)c3c(c(O)c1C2=O)C[C@@](O)(C(=O)CO)C[C@@H]3O[C@H]1C[C@H](NC(=O)C(CC(C)C)NC(=O)[C@H](CC(N)=O)NC(=O)[C@H](C)NC(=O)[C@H](C)N)[C@H](O)[C@H](C)O1 (stereo partly drawn) [C2 AANL-DOX] (H-AAN[ξL]-{Doxorubicin(3'-N)}) | 318.5 ± 197.6 mm^3 | 81.8% | 1564 ± 689.4 mm^3 | 46.0% | – | 42.1% | < 1000 µg/mL | – | – | – | –
4 | COc1cccc2c1C(=O)c1c(O)c3c(c(O)c1C2=O)C[C@@](O)(C(=O)CO)C[C@@H]3O[C@H]1C[C@H](NC(=O)[C@H](CC(C)C)NC(=O)[C@H](CC(N)=O)NC(=O)[C@H](C)NC(=O)[C@H](C)NC(=O)CCCCCN2C(=O)C=CC2=O)[C@H](O)[C@H](C)O1 [C3 EMC-AANL-DOX] | 138.3 ± 124.6 mm^3 | 92.1% | 218.3 ± 167.7 mm^3 | 92.5% | – | 56.4% | < 5000 µg/mL | 66.9% | 624.5 ± 313.6 mm^3 | 8.9% | major in orthotopic tumor in liver
